Measurements published in patent US6872745B2, “Antipicornaviral compounds and compositions, their pharmaceutical uses, and materials for their synthesis” (Agouron Pharmaceuticals, Inc., priority 2000, dated 2005).

Columns and labels:
[1] = target: T1, rhinovirus 3C protease, serotype 14 (Human rhinovirus 14, UniProt P03303); test: Inhibition of rhinovirus 3C protease (FRET assay, enzyme start); format: biochemical; conditions: HRV-14 3C protease, progress curves, read-out: Kobs/I
T1 construct: Recombinant rhinovirus 3C proteases; made in house
T1 sequence (P03303 1538-1719): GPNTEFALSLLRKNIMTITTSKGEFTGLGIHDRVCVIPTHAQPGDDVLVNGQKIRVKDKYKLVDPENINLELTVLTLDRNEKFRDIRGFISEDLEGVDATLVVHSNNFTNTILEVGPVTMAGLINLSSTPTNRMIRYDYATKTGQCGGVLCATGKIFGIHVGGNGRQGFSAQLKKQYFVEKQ
Description: Stock solutions (50 mM, in DMSO) of various compounds were prepared; dilutions were in the same solvent. Recombinant rhinovirus 3C proteases (see Birch et al., “Purification of recombinant human rhinovirus 14 3C protease expressed in Escherichia coli,” Protein Expr. Pur. (1995), vol. 6(5), 609-618) from serotypes 14, 16, and 2 were prepared by the following standard chromatographic procedures: (1) ion exchange using Q Sepharose Fast Flow from Pharmacia; (2) affinity chromatography using Affi-Gel Blue from Biorad; and (3) sizing using Sephadex G-100 from Pharmacia. Each assay sample contained 2% DMSO, 50 mM tris pH 7.6, 1 mM EDTA, a test compound at the indicated concentration, approximately 1 μM substrate, and 50-100 nM protease. The kobs/I values were obtained from reactions initiated by addition of enzyme rather than substrate. RVP activity was measured in the fluorescence resonance energy transfer assay. The substrate was (N-terminal) DABCYL-(Gly-Arg-Ala-Val-Phe-Gln-Gly-Pro-Val-Gly)-EDANS. In the uncleaved peptide, the EDANS fluorescence was quenched by the proximal DABCYL moiety. When the peptide was cleaved, the quenching was relieved, and activity was measured as an increase in fluorescence signal. The tabulated data in the column designated kobs/[I] were measured from progress curves in enzyme start experiments.

[2] = tested on: HRV-14; test: Antirhinoviral H1-HeLa cell culture assay (XTT cell protection); format: cell-based, human rhinovirus; conditions: Rhinovirus B, HRV14, H1-HeLa, HRV-14, H1-HeLa cells
Description: (§1) In this cell protection assay, the ability of compounds to protect cells against HRV infection was measured by the XTT dye reduction method, which is described in Weislow et al., J. Natl. Cancer Inst. (1989), vol. 81, 577-586. H1-HeLa cells were infected with HRV-14 at a multiplicity of infection (m.o.i.) of 0.13 (virus particles/cell) or mock-infected with medium only. Infected or mock-infected cells were resuspended at 8×10^5 cells per ml, and incubated with appropriate concentrations of the compounds to be tested. Two days later, XTT/PMS was added to test plates and the amount of formazan produced was quantified spectrophotometrically at 450/650 nm. The EC50 value was calculated as the concentration of compound that increased the percentage of formazan production in compound-treated, virus-infected cells to 50% of that produced by compound-free, mock-infected cells. The 50% cytotoxic dose (CC50) was calculated as the concentration of compound that decreased the percentage of formazan produced in compound-treated, mock-infected cells to 50% of that produced by compound-free, mock-infected cells. The therapeutic index (TI) was calculated by dividing the CC50 value by the EC50 value.
(§2) All strains of human rhinovirus (HRV) for use in this assay were purchased from American Type Culture Collection (ATCC), except for HRV serotype-14 (produced from the infectious cDNA clone constructed by Dr. Robert Rueckert, Institute for Molecular Virology, University of Wisconsin, Madison, Wis.). HRV stocks were propagated and viral assays were performed in H1-HeLa cells (ATCC). Cells were grown in minimal essential medium with 10% fetal bovine serum, available from Life Technologies (Gaithersburg, Md.).

[3] = Cytotoxicity in mock-infected cells of the antirhinoviral assay (XTT); format: cell-based; conditions: human, H1-HeLa cells, table line HRV-14
Description: as §1, §2

Structure (SMILES)	kinact/KI [1] [M⁻¹ s⁻¹]	EC50 [2] [µM]	CC50 at 2 days [3] [µM]
CCOC(=O)/C=C/[C@H](CCC(N)=O)NC(=O)[C@H](Cc1ccccc1)NC(=O)c1ccc(-c2cccc3ccccc23)[nH]1 [Compound 3]	30800	0.109	> 10
CCOC(=O)/C=C/[C@H](CCC(N)=O)NC(=O)[C@H](Cc1ccccc1)NC(=O)c1ccc(-c2cncc3ccccc23)[nH]1 [Compound 5, 6-Carbamoyl-4S-{2S-[(5-isoquinolin-4-yl-1H-pyrrole-2-carbonyl)-amino]-3-phenyl-propionylamino}-hex-2(trans)-enoic acid ethyl ester]	12700	1.1	> 10
CCOC(=O)/C=C/[C@H](CCC(N)=O)NC(=O)[C@H](CC(C)C)NC(=O)c1ccc(-c2ccccc2C(F)(F)F)[nH]1 [Compound 17, 6-Carbamoyl-4S-(4-methyl-2S-{[5-(2-trifluoromethyl-phenyl)-1H-pyrrole-2-carbonyl]-amino}-pentanoylamino)-hex-2(trans)-enoic acid ethyl ester]	2900	2.19	> 10
CCOC(=O)/C=C/[C@H](CCC(N)=O)NC(=O)[C@H](Cc1ccccc1)NC(=O)c1ccc(-c2ccccc2Br)[nH]1 [Compound 14, 4S-(2S-{[5-(2-Bromo-phenyl)-1H-pyrrole-2-carbonyl]-amino}-3-phenyl-propionylamino)-6-carbamoyl-hex-2(trans)-enoic acid ethyl ester]	34600	0.534	> 10
CCOC(=O)/C=C/[C@H](CCC(N)=O)NC(=O)[C@H](Cc1ccccc1)NC(=O)c1ccc(-c2cccnc2)[nH]1 [Compound 8, 6-Carbamoyl-4S-{3-phenyl-2S-[(5-pyridin-3-yl-1H-pyrrole-2-carbonyl)-amino]-propionylamino}-hex-2(trans)-enoic acid ethyl ester]	1300	4.92	> 10
CCOC(=O)/C=C/[C@H](CCC(N)=O)NC(=O)[C@H](Cc1ccccc1)NC(=O)c1ccc(-c2ccccc2OC)[nH]1 [Compound 11, 6-Carbamoyl-4S-(2S-{[5-(2-methoxy-phenyl)-1H-pyrrole-2-carbonyl]-amino}-3-phenyl-propionylamino)-hex-2(trans)-enoic acid ethyl ester]	5000	0.646	> 10
CCOC(=O)/C=C/[C@H](CCC(N)=O)NC(=O)[C@H](Cc1ccccc1)NC(=O)c1ccc(-c2cccc(Cl)c2Cl)[nH]1 [Compound 1]	20300	0.202	> 10
CCOC(=O)/C=C/[C@H](CCC(N)=O)NC(=O)[C@H](Cc1ccccc1)NC(=O)c1ccc(-c2cccc(C(C)C)c2)[nH]1 [Compound 6, 6-Carbamoyl-4S-(2S-{[5-(3-isopropyl-phenyl)-1H-pyrrole-2-carbonyl]-amino}-3-phenyl-propionylamino)-hex-2(trans)-enoic acid ethyl ester]	2130	1.43	> 10
CCOC(=O)/C=C/[C@H](CCC(N)=O)NC(=O)[C@H](Cc1ccccc1)NC(=O)c1ccc(-c2ccncc2)[nH]1 [Compound 15, 6-Carbamoyl-4S-{3-phenyl-2S-[(5-pyridin-4-yl-1H-pyrrole-2-carbonyl)-amino]-propionylamino}-hex-2(trans)-enoic acid ethyl ester]	980	27	> 100

Continued, in another order:

kinact/KI [1] [M⁻¹ s⁻¹]	EC50 [2] [µM]	Structure (SMILES)	CC50 at 2 days [3] [µM]
5460	3.91	CCOC(=O)/C=C/[C@H](C[C@@H]1CCNC1=O)NC(=O)[C@H](Cc1ccccc1)NC(=O)c1ccc[nH]1 [Compound 24, 5-(2-Oxo-pyrrolidin-3S-yl)-4S-{3-phenyl-2S-[(1H-pyrrole-2-carbonyl)-amino]-propionylamino}-pent-2(trans)-enoic acid ethyl ester]	> 100
188000	0.073	O=C1OCC/C1=C\[C@H](C[C@@H]1CCNC1=O)NC(=O)[C@H](Cc1ccc(F)cc1)NC(=O)c1ccc(-c2cccc3ccccc23)[nH]1 [Compound 26]	> 10
330	16.4	CCOC(=O)/C=C/[C@H](CCC(N)=O)NC(=O)CNC(=O)c1ccc(-c2ccccc2C(F)(F)F)[nH]1 [Compound 20, 6-Carbamoyl-4S-(2S-{[5-(2-trifluoromethyl-phenyl)-1H-pyrrole-2-carbonyl]-amino}-acetylamino)-hex-2(trans)-enoic acid ethyl ester]	> 100
2500	3.34	CCOC(=O)/C=C/[C@H](C[C@@H]1CCNC1=O)NC(=O)[C@@H](CC(=O)c1ccc[nH]1)Cc1ccccc1 [Compound 30]	> 10
125000	0.143	CCOC(=O)/C=C/[C@H](C[C@@H]1CCNC1=O)NC(=O)[C@@H](CC(=O)c1ccc(-c2ccccc2C(F)(F)F)[nH]1)Cc1ccccc1 [Compound 35, 4S-{2R-Benzyl-4-oxo-4-[5-(2-trifluoromethyl-phenyl)-1H-pyrrol-2-yl]-butyrylamino}-5-(2-oxo-pyrrolidin-3S-yl)-pent-2(trans)-enoic acid ethyl ester]	> 10
3800	1.55	CCOC(=O)/C=C/[C@H](CCC(N)=O)NC(=O)[C@H](CC)NC(=O)c1ccc(-c2ccccc2C(F)(F)F)[nH]1 [Compound 23, 6-Carbamoyl-4S-(2S-{[5-(2-trifluoromethyl-phenyl)-1H-pyrrole-2-carbonyl]-amino}-butyrlamino)-hex-2(trans)-enoic acid ethyl ester]	> 10
11700	1.58	O=C1OCC/C1=C\[C@H](C[C@@H]1CCNC1=O)NC(=O)[C@H](Cc1ccc(F)cc1)NC(=O)c1ccc(-c2ccccc2)[nH]1 [Compound 27, 5-Phenyl-1H-pyrrole-2-carboxylic acid-{2S-(4-fluorophenyl)-1S-[1-(2-oxo-dihydrofuran-3-ylidinemethyl)-1-(2-oxo-pyrrolidin-3S-methyl)-ethylcarbamoyl]-2S-phenyl-ethyl}-amide]	> 10
3140	1.6	CCC[C@H](NC(=O)c1ccc(-c2ccccc2C(F)(F)F)[nH]1)C(=O)N[C@H](/C=C/C(=O)OCC)CCC(N)=O [Compound 18, 6-Carbamoyl-4S-(2S-{[5-(2-trifluoromethyl-phenyl)-1H-pyrrole-2-carbonyl]-amino}-pentanoylamino)-hex-2(trans)-enoic acid ethyl ester]	> 10
4400	5.72	CCOC(=O)/C=C/[C@H](CCC(N)=O)NC(=O)[C@H](Cc1ccccc1)NC(=O)c1ccc(CCC(F)(F)F)[nH]1 [Compound 22, 6-Carbamoyl-4S-(3-phenyl-2S-{[5-(3,3,3-trifluoro-propyl)-1H-pyrrole-2-carbonyl]-amino}-propionylamino)-hex-2(trans)-enoic acid ethyl ester]	> 10
6650	1.53	CCCC[C@H](NC(=O)c1ccc(-c2ccccc2C(F)(F)F)[nH]1)C(=O)N[C@H](/C=C/C(=O)OCC)CCC(N)=O [Compound 19, 6-Carbamoyl-4S-(2S-{[5-(2-trifluoromethyl-phenyl)-1H-pyrrole-2-carbonyl]-amino}-hexanoylamino)-hex-2(trans)-enoic acid ethyl ester]	> 10
100000	0.212	O=C1OCC/C1=C\[C@H](C[C@@H]1CCNC1=O)NC(=O)[C@@H](CC(=O)c1ccc(-c2cccc3ccccc23)[nH]1)Cc1ccc(F)cc1 [Compound 33, 2-(R,S)-(4-Fluorobenzyl)-4-(5-naphthalen-1-yl-1H-pyrrol-2-yl)-4-oxo-N-[2-(2-oxo-dihydro-furan-3-ylidine)-1S-(2-oxo-pyrrolidin-3S-ylmethyl)-ethyl]-butyramide]	> 10
